Results as given in the kinase profiling compilation of Christmann-Franck et al. (2016).

Legend:
Assay in all cases: radiometric filter-binding kinase assay, Kinase HotSpot
Details in all cases: compound 0.5 µM; ATP 10 µM
BRSK2 (human) = BRSK2 (human) (UniProt Q8IWQ3)
MST4 (human) = MST4 (human) (UniProt Q9P289)
PHKG2 (human) = PHKG2 (human) (UniProt P15735)
YES1 (human) = YES1 (human) (UniProt P07947)
Sequence of YES1 (human) (P07947 whole entry, looked up): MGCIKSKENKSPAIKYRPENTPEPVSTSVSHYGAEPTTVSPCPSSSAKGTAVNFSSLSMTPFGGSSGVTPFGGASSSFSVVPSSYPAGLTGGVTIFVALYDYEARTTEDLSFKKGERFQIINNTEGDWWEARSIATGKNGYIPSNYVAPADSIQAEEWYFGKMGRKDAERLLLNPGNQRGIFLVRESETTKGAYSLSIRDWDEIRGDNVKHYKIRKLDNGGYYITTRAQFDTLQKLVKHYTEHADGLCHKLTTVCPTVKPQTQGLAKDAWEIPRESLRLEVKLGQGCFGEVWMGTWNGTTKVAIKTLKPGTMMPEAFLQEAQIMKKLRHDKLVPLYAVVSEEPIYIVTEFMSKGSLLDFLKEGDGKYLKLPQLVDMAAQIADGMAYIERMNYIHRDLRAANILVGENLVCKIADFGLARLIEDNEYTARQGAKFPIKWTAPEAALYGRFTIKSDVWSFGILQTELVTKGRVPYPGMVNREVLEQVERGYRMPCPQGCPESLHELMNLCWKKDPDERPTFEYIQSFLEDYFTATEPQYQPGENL

Sequence of MST4 (human) (Q9P289 whole entry, looked up): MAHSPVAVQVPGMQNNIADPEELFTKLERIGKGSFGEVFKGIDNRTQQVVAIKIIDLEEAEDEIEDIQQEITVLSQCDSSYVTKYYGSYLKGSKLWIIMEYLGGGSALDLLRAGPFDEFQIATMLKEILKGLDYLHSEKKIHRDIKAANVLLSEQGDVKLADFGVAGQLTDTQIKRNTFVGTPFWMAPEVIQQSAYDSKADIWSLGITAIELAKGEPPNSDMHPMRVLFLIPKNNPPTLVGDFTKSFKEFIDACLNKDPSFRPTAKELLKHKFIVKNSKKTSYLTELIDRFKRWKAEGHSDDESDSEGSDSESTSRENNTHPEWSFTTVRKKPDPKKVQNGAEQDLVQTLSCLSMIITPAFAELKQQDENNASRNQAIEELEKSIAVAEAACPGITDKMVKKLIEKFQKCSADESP
Sequence of PHKG2 (human) (P15735 whole entry, looked up): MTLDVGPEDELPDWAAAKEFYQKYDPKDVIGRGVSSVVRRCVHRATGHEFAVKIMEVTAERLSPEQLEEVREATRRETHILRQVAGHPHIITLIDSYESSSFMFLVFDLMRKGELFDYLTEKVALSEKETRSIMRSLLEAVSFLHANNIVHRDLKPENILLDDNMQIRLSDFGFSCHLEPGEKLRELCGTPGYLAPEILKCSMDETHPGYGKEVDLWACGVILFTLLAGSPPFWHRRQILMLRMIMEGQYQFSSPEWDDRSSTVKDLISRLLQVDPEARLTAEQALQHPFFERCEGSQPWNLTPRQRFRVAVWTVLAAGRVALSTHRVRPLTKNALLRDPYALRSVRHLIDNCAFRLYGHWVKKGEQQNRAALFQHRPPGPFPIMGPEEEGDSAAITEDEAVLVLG
Sequence of BRSK2 (human) (Q8IWQ3 whole entry, looked up): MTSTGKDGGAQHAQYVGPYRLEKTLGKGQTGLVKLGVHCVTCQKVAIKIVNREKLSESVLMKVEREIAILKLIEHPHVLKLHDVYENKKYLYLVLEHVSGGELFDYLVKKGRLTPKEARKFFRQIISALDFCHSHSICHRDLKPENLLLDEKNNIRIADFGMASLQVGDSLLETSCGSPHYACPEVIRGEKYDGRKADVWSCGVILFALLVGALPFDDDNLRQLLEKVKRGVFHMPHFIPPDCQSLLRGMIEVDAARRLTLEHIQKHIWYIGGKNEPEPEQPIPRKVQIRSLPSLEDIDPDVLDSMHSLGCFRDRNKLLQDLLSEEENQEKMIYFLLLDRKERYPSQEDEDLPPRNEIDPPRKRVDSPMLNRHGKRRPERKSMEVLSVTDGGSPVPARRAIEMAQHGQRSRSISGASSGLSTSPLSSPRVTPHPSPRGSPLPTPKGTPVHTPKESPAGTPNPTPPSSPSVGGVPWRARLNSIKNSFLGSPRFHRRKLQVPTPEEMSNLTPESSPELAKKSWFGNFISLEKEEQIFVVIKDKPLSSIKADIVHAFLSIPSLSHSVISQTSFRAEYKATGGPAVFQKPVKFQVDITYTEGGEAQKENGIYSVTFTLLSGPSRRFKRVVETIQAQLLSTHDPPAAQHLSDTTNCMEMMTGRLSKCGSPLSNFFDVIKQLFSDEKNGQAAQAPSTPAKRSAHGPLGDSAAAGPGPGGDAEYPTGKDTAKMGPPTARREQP

For `CN[C@@H]1C[C@H]2O[C@@](C)([C@@H]1OC)n1c3ccccc3c3c4c(c5c6ccccc6n2c5c31)C(=O)NC4`, the residual activity (BRSK2 (human)) was 3.53%, the residual activity (MST4 (human)) was 4.43% and the residual activity (PHKG2 (human)) was 3.42%. The residual activity (YES1 (human)) was 4.48%.
